This note sets out measurements from patent publication US8389555B2, “Medicaments” (Motac Neuroscience Limited, priority 2007, dated 2013).

In data set [1] the target is T1, recombinant human D2(short) dopamine receptor (Homo sapiens, UniProt P14416).
T1 construct: expressed in transfected cells; host or cells: CHO-D2S cells (per Hayes et al. 1992)
Put plainly: Dopamine D2S receptor binding assay ([3H]spiperone, CHO cell membranes). The note with it: human D2S receptors in CHO cells, 0.2 nM [3H]spiperone, mean ± SEM; read-out: Affinity Ki (D2). The method, then:
(§1) Compounds synthesized in Examples A, B, C and D were assayed to test their affinity for dopamine D3 and D2 receptors.
(§2) METHODS: Dopamine D2S and D3 Receptor Binding Assays
CHO-D2S cells, expressing the recombinant human D2(short) dopamine receptor gene, (Hayes, G. et al., J. Mol. Endocrinol. 1992, 6, 920-926) were grown in Dulbecco's modified Eagle's medium/nutrient mixture F12 1:1 mixture supplemented with 2 mM glutamine, 10% fetal bovine serum, and 10 μl·ml^−1 penicillin/streptomycin in an atmosphere of 5% CO2 at 37° C. (Gibco™, Karlsruhe, Germany).
(§3) Human D2S- and D3 receptors expressing cell lines were grown to confluence. The medium was removed, and the cells were washed with 10 ml PBS buffer (140 mM NaCl, 3 mM KCl, 1.5 mM KH2PO4, 8 mM Na2HPO4, pH 7.4) at 4° C. After removing the wash buffer, the cells were scraped from the flasks into 15 ml of ice-cold media, and centrifuged at 3,000 rpm for 10 minutes at 4° C. After centrifugation the medium was removed and the […] resuspended in ice-cold Tris-HCl buffer containing 5 mM MgCl2, pH 7.4 and disrupted with a Polytron and centrifuged at 20,000 rpm, for 30 minutes at 4° C. The pellet was resuspended by sonication in ice-cold Tris-HCl buffer (containing 5 mM MgCl2, pH 7.4), membrane aliquots were stored at −70° C. Determination of membrane protein was carried out by the method of Bradford (Bradford, M. M. Anal Biochem 1976, 72, 248-54).
(§4) Cell membranes containing human D2S and D3 receptors from CHO cells were thawed, rehomogenized with sonication at 4° C. in Tris-HCl, pH 7.4 containing 120 mM NaCl, 5 mM KCl, 2 mM CaCl2 and 1 mM MgCl2 (incubation buffer), and incubated with 0.2 nM [^3H]spiperone (106 Ci·mmol^−1, Amersham Biosciences, Freiburg, Germany), and drug diluted in incubation buffer. Non-specific binding was determined in the presence of 10 μM BP 897 ((Wermuth, C. G. et al. in Chem. Abstr. (Eur. Pat. 0779284, 1997)). Incubations were run at 25° C. for 120 min, and terminated by rapid filtration through PerkinElmer GF/B glass fibre filters (PerkinElmer Life Sciences, Rodgau, Germany) coated in 0.3% polyethylenimine (Sigma-Aldrich, Taufkirchen, Germany) using an Inotech cell harvester (Inotech AG, Dottikon, Switzerland). Unbound radioligand was removed with four washes of 1 ml of ice-cold 50 mM Tris-HCl buffer, pH 7.4, containing 120 mM NaCl. The filters were soaked in 9 ml Beta plate scint scintillator and counted using a PerkinElmer MicroBeta®Trilux scintillation counter (PerkinElmer Life Sciences). Competition binding data were analyzed by the software GraphPad Prism™ (2000, version 3.02, San Diego, Calif., USA), using non-linear least squares fit. For detailed screening the compounds have been tested at seven concentrations in triplicate carrying out three to five separate binding experiments for human dopamine D2S and for human dopamine D3 receptors and expressed as mean±standard error of the mean (SEM). Ki values were calculated from the IC50 values according to Cheng-Prusoff equation (Cheng, Y. C., Prusoff, W. H. Biochem. Pharmacol. 1973, 22, 3099-3108.).

The target of data set [2] is T2, human dopamine D3 receptors (Homo sapiens, UniProt P35462).
T2 construct: expressed in transfected cells
T2 sequence (P35462 whole entry): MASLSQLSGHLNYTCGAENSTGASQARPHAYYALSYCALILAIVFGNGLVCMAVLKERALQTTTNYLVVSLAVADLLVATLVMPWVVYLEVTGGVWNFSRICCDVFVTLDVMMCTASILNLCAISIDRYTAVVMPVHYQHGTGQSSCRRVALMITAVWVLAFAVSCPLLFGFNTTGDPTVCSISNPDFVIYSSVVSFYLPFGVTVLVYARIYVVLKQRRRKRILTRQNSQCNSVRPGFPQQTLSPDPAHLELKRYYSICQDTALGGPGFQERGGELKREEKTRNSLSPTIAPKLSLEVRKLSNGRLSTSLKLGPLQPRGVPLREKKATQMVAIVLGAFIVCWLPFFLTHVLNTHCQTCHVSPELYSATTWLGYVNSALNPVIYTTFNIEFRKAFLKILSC
Put plainly: Dopamine D3 receptor binding assay ([3H]spiperone, CHO cell membranes). The conditions noted are these: for Ki: human D3 receptors in CHO cells, 0.2 nM [3H]spiperone, mean ± SEM, read-out: Affinity Ki (D3); for Selectivity Ki(D2)/Ki(D3): ratio of Ki(D2) to Ki(D3). The method, then:
as §1, §2
Human D3 receptors stably expressed in CHO cells were used as described by Sokoloff et al. (Sokoloff, P. et al., Eur. J. Pharmacol. 1992, 225, 331-337). The cell line was cultured in Dulbecco's modified Eagle's medium supplemented with 2 mM glutamine, and 10% dialyzed fetal bovine serum, and were grown in an atmosphere of 5% CO2 at 37° C. (Gibco™).
as §3, §4

Where a name gives a salt, the structure may show the parent alone.

T1 sequence (P14416 1-414 isoform P14416-2): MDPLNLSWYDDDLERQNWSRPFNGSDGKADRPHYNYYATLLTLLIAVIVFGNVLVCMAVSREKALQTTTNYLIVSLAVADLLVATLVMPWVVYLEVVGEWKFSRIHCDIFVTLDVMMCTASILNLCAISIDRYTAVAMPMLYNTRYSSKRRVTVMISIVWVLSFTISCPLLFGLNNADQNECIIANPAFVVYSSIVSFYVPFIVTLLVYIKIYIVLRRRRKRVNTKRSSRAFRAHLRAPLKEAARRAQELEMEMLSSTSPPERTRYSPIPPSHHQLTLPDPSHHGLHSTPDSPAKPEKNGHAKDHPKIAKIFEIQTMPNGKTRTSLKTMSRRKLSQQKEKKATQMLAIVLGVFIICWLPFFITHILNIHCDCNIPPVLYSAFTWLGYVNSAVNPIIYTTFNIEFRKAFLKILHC

What is called melting point is the temperature of the solid-liquid transition. As to `CCCN(CCCCNC(=O)N1CC=C(c2ccccc2)CC1)C1CCc2ncsc2C1` (stereo not drawn) (as salt: salt) [Compound 62, 4-Phenyl-3,6-dihydro-2H-pyridine-1-carboxylic acid {4-[propyl-(4,5,6,7-tetrahydrobenzothiazol-6-yl)amino]butyl}amide], the melting point stood at 115 °C.
`CCCN(CCCCNC(=O)C1CCCCC1)C1CCc2ncsc2C1` (stereo not drawn) (as salt: salt) [Compound 20, Cyclohexanecarboxylic acid {4-[propyl-(4,5,6,7-tetrahydro-benzothiazol-6-yl)-amino]-butyl}-amide]: the melting point was found to be 130 °C.
As to `CCCN(CCCCNC(=O)C1Cc2ccccc2C1)C1CCc2ncsc2C1` (stereo not drawn) (as salt: salt) [Compound 26, Indane-2-carboxylic acid-{4-[propyl-(4,5,6,7-tetrahydrobenzothiazol-6-yl)amino]butyl}amide], the melting point amounted to 119 °C.
The Ki is a dissociation constant, usually derived from enzyme kinetics or from competition with a known ligand. In the case of `CCCN(CCCCNC(=O)C1CCc2ccccc2C1)C1CCc2ncsc2C1` (stereo not drawn) [Compound 23, 1,2,3,4-Tetrahydro-naphthalene-2-carboxylic acid {4-[propyl-(4,5,6,7-tetrahydro-benzothiazol-6-yl)-amino]-butyl}-amide], the Ki in data set [1] was 2.17 ± 0.566 µM. For the same compound, in data set [2], the Ki came out at 0.00172 ± 0.00022 µM and the “Selectivity Ki(D2)/Ki(D3)” value is recorded as 1262.
Regarding `CCCN(CCCCNC(=O)NC1Cc2ccccc2C1)C1CCc2ncsc2C1` (stereo not drawn) [Compound 60, 1-Indan-2-yl-3-{4-[propyl-(4,5,6,7-tetrahydrobenzothiazol-6-yl)amino]butyl}urea], the Ki in data set [1] turned out to be 2.18 ± 1.64 µM. In addition, in data set [2], the Ki was 0.00336 ± 0.00121 µM and the “Selectivity Ki(D2)/Ki(D3)” value is 649.
`CCCN(CCCCNC(=O)C=Cc1ccc(F)cc1)C1CCc2ncsc2C1` (stereo not drawn) [Compound 18, 4-Fluoro-N-{4-[propyl-(4,5,6,7-tetrahydro-benzothiazol-6-yl)-amino]-butyl}-cinnamoylamide]: the figures for the inhibition constant (Ki) in data set [1] and in data set [2] were 0.842 ± 0.035 µM and 0.00057 ± 4e-05 µM, respectively. For the same compound, the “Selectivity Ki(D2)/Ki(D3)” value in data set [2] was 1479.
Take `CCN(CCN1CCN(c2ccccc2OC)CC1)C1CCc2ncsc2C1` (stereo not drawn) [Compound 28]: the inhibition constant Ki in data set [1] came to 0.148 ± 0.023 µM. In data set [2], the Ki came out at 0.0135 ± 0.0011 µM and the “Selectivity Ki(D2)/Ki(D3)” value worked out at 11.
In the case of `O=C(NCCCCNC1CCc2ncsc2C1)c1cc2ccccc2s1` (stereo not drawn) [Compound 10, Benzo[b]thiophene-2-carboxylic acid [4-(4,5,6,7-tetrahydro-benzothiazol-6-ylamino)-butyl]-amide], in data set [1], the inhibition constant Ki was 23.4 ± 1.22 µM. For the same compound, in data set [2], the Ki came to 0.292 ± 0.041 µM and the “Selectivity Ki(D2)/Ki(D3)” value was determined as 80.
For `CC#CCN(CCCCNC(=O)c1ccc2ccccc2c1)C1CCc2ncsc2C1` (stereo not drawn) [Compound 8, Naphthalene-2-carboxylic acid {4-[but-2-ynyl-(4,5,6,7-tetrahydro-benzothiazol-6-yl)-amino]-butyl}-amide], the Ki amounted to 8.37 ± 3.82 µM in data set [1] and 0.108 ± 0.04 µM in data set [2]. Besides, the “Selectivity Ki(D2)/Ki(D3)” value in data set [2] was 77.
As to `CCCN(CCCCN1CCN(c2cccc(Cl)c2Cl)CC1)C1CCc2ncsc2C1` (stereo not drawn) [Compound 37, {4-[4-(2,3-Dichloro-phenyl)-piperazin-1-yl]-butyl}-propyl-(4,5,6,7-tetrahydro-benzothiazol-6-yl)-amine], the inhibitory constant (Ki) in data set [1] was 0.0794 ± 0.0497 µM. In addition, in data set [2], the inhibitory constant (Ki) was 0.0076 ± 0.0016 µM and the “Selectivity Ki(D2)/Ki(D3)” value was 7.
As for `CCCN(CCOc1ccccc1)C1CCc2ncsc2C1` (stereo not drawn) [Compound 69, N-(2-Phenoxyethyl)-N-propyl-4,5,6,7-tetrahydrobenzothiazol-6-amine], the Ki in data set [1] worked out at 4.67 ± 1.32 µM. For the same compound, in data set [2], the Ki is 0.051 ± 0.01 µM and the “Selectivity Ki(D2)/Ki(D3)” value stood at 91.
Take `CCCN(CCCCC(=O)N1CCN(c2ccccc2)CC1)C1CCc2ncsc2C1` (stereo not drawn) [Compound 66, 1-(4-Phenylpiperazin-1-yl)-5-(propyl-(4,5,6,7-tetrahydrobenzothiazol-6-yl)amino)pentan-1-one]: the inhibition constant (Ki) was 4.13 ± 1.56 µM in data set [1] and 0.00723 ± 0.001 µM in data set [2]. In data set [2], the “Selectivity Ki(D2)/Ki(D3)” value turned out to be 572.
Take `CCN(CCCCN1CCN(c2ccccc2OC)CC1)C1CCc2ncsc2C1` (stereo not drawn) [Compound 30, Ethyl-{4-[4-(2-methoxy-phenyl)-piperazin-1-yl]-butyl}-(4,5,6,7-tetrahydro-benzothiazol-6-yl)-amine]: the Ki in data set [1] is 0.48 ± 0.051 µM. Besides, in data set [2], the Ki is 0.0553 ± 0.0161 µM and the “Selectivity Ki(D2)/Ki(D3)” value came to 8.7.
Regarding `CCCN(CCCCNC(=O)c1ccc2ccccc2c1)C1CCc2ncsc2C1` (stereo not drawn) [Compound 5, Naphthalene-2-carboxylic acid {4-[propyl-(4,5,6,7-tetrahydro-benzothiazol-6-yl)-amino]-butyl}-amide], the inhibition constant Ki in data set [1] amounted to 0.873 ± 0.388 µM. For the same compound, in data set [2], the Ki was 0.00116 ± 0.00017 µM and the “Selectivity Ki(D2)/Ki(D3)” value was determined as 751.
For `CCN(CCN1CCc2ccccc2C1)C1CCc2ncsc2C1` (stereo not drawn) [Compound 31, [2-(3,4-Dihydro-1H-isoquinolin-2-yl)-ethyl]-ethyl-(4,5,6,7-tetrahydro-benzothiazol-6-yl)-amine], the Ki in data set [1] worked out at 0.929 ± 0.103 µM. Also, in data set [2], the Ki is 0.0265 ± 0.0044 µM and the “Selectivity Ki(D2)/Ki(D3)” value is given as 35.
For `CN(CCCCNC(=O)c1ccc2ccccc2c1)C1CCc2ncsc2C1` (stereo not drawn) [Compound 3, Naphthalene-2-carboxylic acid {4-[methyl-(4,5,6,7-tetrahydro-benzothiazol-6-yl)-amino]-butyl}-amide], in data set [1], the inhibitory constant (Ki) was determined as 3.82 ± 1.1 µM. Besides, in data set [2], the inhibitory constant (Ki) worked out at 0.0254 ± 0.0096 µM and the “Selectivity Ki(D2)/Ki(D3)” value came to 151.
Consider `CCN(CCCN1CCN(c2ccccc2OC)CC1)C1CCc2ncsc2C1` (stereo not drawn) [Compound 29, Ethyl-{3-[4-(2-methoxy-phenyl)-piperazin-1-yl]-propyl}-(4,5,6,7-tetrahydro-benzothiazol-6-yl)-amine], for which the inhibition constant Ki in data set [1] was determined as 0.14 ± 0.122 µM. Also, in data set [2], the Ki is 0.089 ± 0.0017 µM and the “Selectivity Ki(D2)/Ki(D3)” value is 2.
In the same order, the values of `CCCN(CCCCNC(=O)C12CC3CC(CC(C3)C1)C2)C1CCc2ncsc2C1` (stereo not drawn) [Compound 65] are 2.74 ± 1.08 µM, 0.00095 µM and 2879.
Consider `CCN(CCCCNC(=O)c1ccc2ncsc2c1)C1CCc2ncsc2C1` (stereo not drawn) [Compound 14, Benzothiazole-6-carboxylic acid {4-[ethyl-(4,5,6,7-tetrahydro-benzothiazol-6-yl)-amino]-butyl}-amide], for which the Ki in data set [1] turned out to be 2.1 ± 0.327 µM. Further, in data set [2], the inhibition constant Ki is 0.00561 ± 0.0003 µM and the “Selectivity Ki(D2)/Ki(D3)” value is given as 375.
As for `O=C(NCCCCNC1CCc2ncsc2C1)c1nc2ccccc2s1` (stereo not drawn) [Compound 63, N-(4-(4,5,6,7-Tetrahydrobenzo[d]thiazol-6-ylamino)butyl)benzo[d]thiazole-2-carboxamide], the inhibition constant Ki was 24.5 ± 7.58 µM in data set [1] and 1.9 ± 0.51 µM in data set [2]. Further, in data set [2], the “Selectivity Ki(D2)/Ki(D3)” value turned out to be 13.
In the case of `CCCN(CCCCNC(=O)N1CC=C(c2ccccc2)CC1)C1CCc2ncsc2C1` (stereo not drawn) [Compound 62, 4-Phenyl-3,6-dihydro-2H-pyridine-1-carboxylic acid {4-[propyl-(4,5,6,7-tetrahydrobenzothiazol-6-yl)amino]butyl}amide], the Ki in data set [1] stood at 4.88 ± 1.89 µM. For the same compound, in data set [2], the Ki amounted to 0.00731 ± 0.00286 µM and the “Selectivity Ki(D2)/Ki(D3)” value worked out at 667.
`CCN(CCNC(=O)c1ccc2ccccc2c1)C1CCc2ncsc2C1` (stereo not drawn) [Compound 32, Naphthalene-2-carboxylic acid {2-[ethyl-(4,5,6,7-tetrahydro-benzothiazol-6-yl)-amino]-ethyl}-amide]: the Ki in data set [1] turned out to be 2.55 ± 0.302 µM; in data set [2], 0.0678 ± 0.0214 µM. Besides, the “Selectivity Ki(D2)/Ki(D3)” value in data set [2] is on record as 38.
